Literature values in patent US10111869B2, “Reduction of opioid blood fluctuations” (priority 2009, dated 2018).

Conditions: in vivo

COc1ccc2c3c1O[C@H]1C(=O)CC[C@@]4(O)[C@@H](C2)N(C)CC[C@]314 [Oxycodone]
analgesic potency relative to morphine: about twice
